Data: patent US20250213561A1, “SELECTIVE HYPOTHALAMUS PERMEABLE HDAC6 INHIBITORS FOR TREATMENT OF LEPTIN-RESISTANT OBESITY” (The Children’s Medical Center Corporation, priority 2022, published 2025)

Tests used:
[1] = test system: HDAC6 in ACY775-responsive DMH neurons; test: TRAP2-HDAC6^DMH-Δ DIO mice; assay type: in vivo; conditions: TRAP2-HDAC6^DMH-Δ and TRAP2-HDAC6^WT DIO mice
Protocol: Coordinates used for aav-sg-HDAC6 injection into the DMH of c-Fos-iCreER::LSL-Cas9-GFP (TRAP2-Cas9) mouse., mCherry immunostaining in the aav-sg-HDAC6 injected TRAP2-cas9 obese mice, which were treated three weeks earlier with one dose of ACY775 (10 mg/kg, i.p.) (TRAP2-HDAC6^DMH-Δ) or vehicle (TRAP2-HDAC6^WT), followed by 4-Hydroxytamoxifen (4-OHT) injection, were assessed. TRAP2-HDAC6^WT and TRAP2-HDAC6^DMH-Δ mice were fasted 24-h and treated with ACY775 (10 mg/kg, i.p.). Hourly and total dark cycle food intake (g) (n=4 for each group) was determined for these mice after ACY775 injection. Daily body weight of TRAP2-HDAC6^DMH-Δ(n=10) or TRAP2-HDAC6^WT(n=11) DIO mice was measured during 2 weeks of ACY775 (10 mg/kg/day, i.p) treatment. Daily average food intake of TRAP2-HDAC6^DMH-Δ(n=10) or TRAP2-HDAC6^WT(n=11) DIO mice was measured during 2 weeks of ACY775 treatment.
To investigate whether activity of other neuronal populations are altered after HDAC6 inhibitor treatment, c-fos staining was performed in the whole brain of DIO mice, which were acutely treated with ACY775. […] Some of the DMH neurons express high levels of LepRb and involved in regulation of appetite […]. Whether HDAC6 in these ACY775-responsive DMH neurons is required or involved in any way in mediating the appetite suppressing and body weight lowering effects of ACY775 was then tested. […]

HDAC6 in AgRP neurons = test: DIO mice with HDAC6 depleted in AgRP neurons (HDAC6^Agrp-Δ); assay type: in vivo
Protocol: Design, validation, and stereotaxic injection of AAV viral vector carrying the guide RNAs targeting the mouse HDAC6 genomic locus. Three designed sgRNAs were concatenated and constructed into an AAV vector carrying a cre-enabled mCherry fluorescent marker.
Following the bilateral injection of AAV-sgHDAC6 into the arcuate nucleus of Agrp-ires-cre::LSL-Cas9-GFP (Agrp-Cre^+/−::Cas9^+/−) or control LSL-Cas9-GFP (Cas9^+/−) mice, immunostaining to detect the expression of mCherry and GFP was performed. AAV-sg-HDAC6 injected Agrp-Cre^+/−::Cas9^+/− (HDAC6^Agrp-Δ) and Cas9^+/−(HDAC6^WT) DIO mice (n=7 for each group) were fasted for 24 hours, and injected with ACY775 (10 mg/kg. i.p). Hourly total dark cycle food intake (g) (n=7 for each group) of these mice after ACY775 injection was measured. Body weight of AAV-sg-HDAC6 injected HDAC6^Agrp-Δ (n=11) and HDAC6^WT (n=6) mice were measured during 3 weeks of ACY775 (10 mg/kg/day, i.p.) treatment. Daily average food intake of HDAC6^Agrp-Δ (n=11) and HDAC6^WT (n=6) mice was measured during 3 weeks of ACY775 (10 mg/kg/day, i.p.) treatment. 24-hour food intake average of HDAC6^Agrp-Δ and HDAC6^WT mice during the 3 weeks of ACY775 treatment was assessed. Serum leptin level (ng/ml) of HDAC6^Agrp-Δ and HDAC6^WT mice after 2 weeks of ACY775 treatment (n=13 for HDAC6^WT and n=18 for HDAC6^Agrp-Δ) was measured. Lean mass (g); fat mass; and fat percentage (%) of HDAC6^Agrp-Δ and HDAC6^WT DIO mice after 3 weeks of ACY775 treatment was measured by DEXA scan. The HDAC6 inhibitor responsive neurons in the dorsomedial hypothalamus (DMH) were assessed. Immunostaining and quantification of c-Fos expression was performed in the DMH of DIO mice following one-time ACY775 treatment (10 mg/kg, i.p.).

HDAC6 = HDAC6 (Mus musculus (Mouse), UniProt Q9Z2V5); test: LepRb acetyl-lysine immunoblotting in transfected HEK293 cells; assay type: cell-based; conditions: 200 nM, 0.5-3 h
HDAC6, sequence (Q9Z2V5 whole entry): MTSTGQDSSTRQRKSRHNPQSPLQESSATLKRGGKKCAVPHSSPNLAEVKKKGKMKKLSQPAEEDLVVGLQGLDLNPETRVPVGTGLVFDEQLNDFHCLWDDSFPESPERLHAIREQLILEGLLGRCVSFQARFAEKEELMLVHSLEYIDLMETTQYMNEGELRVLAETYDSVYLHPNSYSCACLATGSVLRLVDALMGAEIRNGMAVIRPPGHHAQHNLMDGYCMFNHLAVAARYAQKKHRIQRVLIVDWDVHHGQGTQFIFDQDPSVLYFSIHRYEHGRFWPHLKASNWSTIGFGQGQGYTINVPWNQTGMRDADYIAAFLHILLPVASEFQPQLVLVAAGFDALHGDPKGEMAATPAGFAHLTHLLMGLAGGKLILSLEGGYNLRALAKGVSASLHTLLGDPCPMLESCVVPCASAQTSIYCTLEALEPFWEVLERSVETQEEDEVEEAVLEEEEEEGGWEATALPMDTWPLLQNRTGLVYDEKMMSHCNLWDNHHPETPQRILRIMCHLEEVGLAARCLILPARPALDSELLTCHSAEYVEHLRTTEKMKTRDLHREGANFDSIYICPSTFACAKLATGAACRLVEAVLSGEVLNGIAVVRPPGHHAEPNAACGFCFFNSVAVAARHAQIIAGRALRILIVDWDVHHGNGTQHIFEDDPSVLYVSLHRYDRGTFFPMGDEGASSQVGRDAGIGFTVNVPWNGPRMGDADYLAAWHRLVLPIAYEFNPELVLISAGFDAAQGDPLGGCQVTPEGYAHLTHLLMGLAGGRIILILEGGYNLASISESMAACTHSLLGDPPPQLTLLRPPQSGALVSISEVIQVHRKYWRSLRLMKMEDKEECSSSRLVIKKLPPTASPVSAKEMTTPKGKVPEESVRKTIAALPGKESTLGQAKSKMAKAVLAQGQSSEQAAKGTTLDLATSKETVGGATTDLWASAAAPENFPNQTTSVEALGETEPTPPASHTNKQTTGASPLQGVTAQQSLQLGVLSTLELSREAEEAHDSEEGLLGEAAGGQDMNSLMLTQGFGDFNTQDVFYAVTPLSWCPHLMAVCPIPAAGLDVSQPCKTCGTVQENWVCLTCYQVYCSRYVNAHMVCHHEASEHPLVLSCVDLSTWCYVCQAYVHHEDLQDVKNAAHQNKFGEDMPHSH
Protocol: HEK293 cells were transfected with the plasmids and were treated with vehicle or ACY775. Subsequently Flag immunoprecipitation was used to pull down LepRb followed by Ac^Lys or Flag immunoblotting.
To test whether HDAC6 can deacetylate LepRb, HEK293 cells were transfected with plasmids (LepRb-Flag, HA-p300 and HDAC6-myc). LepRb was immunoprecipitated by Flag antibodies, which was followed by acetyl-lysine (Ac^Lys) or immunoblottings.
Next, cells were transfected with plasmids (LepRb-Flag, HA-p300 and HDAC6-myc) and subsequently treated with ACY775 ([…]) for 0.5, 1, 2 and 3 h. […] Next, to investigate whether HDAC6 has any effect on LepRb tyrosine phosphorylation, which is indicative of LepRb activation, HEK 293 cells were transfected with LepRb and HDAC6-Myc plasmids in the indicated order and the cells stimulated with leptin (200 ng/ml) for 10 and 60 minutes. The Flag immunoprecipitates were exposed to phospho-tyrosine (p^Tyr) immunoblotting.

O=C(NO)c1cnc(NC2(c3cccc(F)c3)CCCCC2)nc1 [ACY775, 2-[[1-(3-fluorophenyl)cyclohexyl]amino]-N-hydroxy-5-pyrimidinecarboxamide]
body weight and food intake, two weeks [1]: lost weight and food intake was reduced equally in both groups | food intake after a dose in 24 h fasted mice [1]: consumed similar but small amount of food | suppression of food intake after a single dose (HDAC6 in AgRP neurons; HDAC6^Agrp-Δ DIO mice, 10 mg/kg i.p.): almost complete resistance to ACY755-induced suppression of food intake | anti-obesity effects on chronic treatment (HDAC6 in AgRP neurons; HDAC6^Agrp-Δ versus HDAC6^WT DIO mice): Significantly attenuated effects | deacetylation of LepRb (HDAC6): can completely block deactylation of LepRb
